Assay results: patent publication US20260097137A1, “FLUORESCENT PROBE COMPOUNDS FOR TUMOR TARGETING IMAGING, AND SYNTHESIS METHOD THEREFOR” (HEBEI MEDICAL UNIVERSITY, priority 2023, published 2026)

Key:
M1 macrophages = experiment: In vitro fluorescence microscopy assay, FR- M1-type macrophages; assay type: cell-based; details: probe 1 μM, 30 minutes
Procedure: (§1) To investigate the targeting capability of compound GT-NIR-1 toward folate receptor-expressing cells and its subcellular localization, FR^+ KB cells, FR^− A549 cells, FR^+ M2-type macrophages, and FR^− M1-type macrophages were seeded in confocal-specific culture dishes at a density of 3×10^5 cells per dish. The cells were cultured at 37° C. under 5% CO2 for 24 hours. Subsequently, the cells were incubated with GT-NIR-1 (1 μM) for 30 minutes. For competitive binding assays, KB cells and M2 macrophages were co-treated with a 100-fold excess of folic acid (100 μM) and GT-NIR-1 (1 μM) for 30 minutes. After incubation, all cells were washed three times with PBS (pH=7.4). Fluorescence was excited at 775 nm, and cellular fluorescence imaging was observed using confocal fluorescence microscopy (FIG. 4 and FIG. 5).

FRβ (in M2 macrophages) = target: T1, FRβ (in M2 macrophages) (Homo sapiens, UniProt P14207); experiment: In vitro fluorescence microscopy assay, FR+ M2-type macrophages; assay type: cell-based; details: probe 1 μM, 30 minutes, excitation 775 nm
T1 construct: endogenous in cells
T1 sequence (P14207 17-230, species assumed): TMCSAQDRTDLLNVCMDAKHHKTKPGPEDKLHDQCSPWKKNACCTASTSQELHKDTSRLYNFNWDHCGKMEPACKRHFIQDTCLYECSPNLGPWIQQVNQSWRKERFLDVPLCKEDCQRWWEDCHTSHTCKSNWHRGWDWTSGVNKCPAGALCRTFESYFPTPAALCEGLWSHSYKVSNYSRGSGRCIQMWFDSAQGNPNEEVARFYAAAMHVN
Procedure: as §1

FRα (in KB cells) = target: T2, FRα (in KB cells) (Homo sapiens, UniProt P15328); experiment: In vitro fluorescence microscopy assay, FR+ KB cells; assay type: cell-based; details: probe 1 μM, 30 minutes, excitation 775 nm
T2 construct: endogenous in cells; host or cells: KB cells
T2 sequence (P15328 25-234): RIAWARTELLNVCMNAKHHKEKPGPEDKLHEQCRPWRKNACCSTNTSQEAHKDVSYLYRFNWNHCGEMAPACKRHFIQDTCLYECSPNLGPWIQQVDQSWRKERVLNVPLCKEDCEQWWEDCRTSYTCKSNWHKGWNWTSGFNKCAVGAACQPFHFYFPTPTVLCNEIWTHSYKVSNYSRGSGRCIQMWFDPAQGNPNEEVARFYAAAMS
Procedure: as §1

A549 cells = experiment: In vitro fluorescence microscopy assay, FR- A549 cells; assay type: cell-based; details: probe 1 μM, 30 minutes
Procedure: as §1

[1] = test system: FR-positive KB xenografts; experiment: In vivo small animal imaging, FR+ KB cell xenografts; parameters: species or system mice; details: KB xenograft competition group, 100× excess folic acid
Procedure: (§2) Subcutaneous tumor models were established using FR^+ KB cell xenografts and FR A549 cell xenografts. The A549 xenograft model served as the negative control group, while a competition group was included to validate the in vivo targeting specificity of the probes toward tissues with high folate receptor expression. When tumor volumes reached 300-400 mm^3, the following treatments were administered via tail vein injection: • Blank control group: 100 μL saline; • Experimental groups: respective probes (10 nmol, dissolved in 100 μL saline); • Competition group: pre-injection of 100× excess folic acid ([…] in 100 μL saline) 15 minutes prior to probe administration (10 nmol in 100 μL saline).
(§3) Whole-body fluorescence imaging was performed using an IVIS imaging system with 750-800 nm excitation light at 2, 4, 8, 12, 24, and 48 hours post-injection. At 8 hours after systemic imaging, the mice were euthanized, and organs were collected for ex vivo tissue biodistribution analysis using the IVIS system.
The in vivo imaging capability of the GT-IR series compounds was evaluated in the FR^+ KB cell xenograft model following the same experimental procedure. Imaging was performed at 8 hours post-injection using the IVIS system with 750-800 nm excitation light. After euthanasia, organs were collected and subjected to ex vivo biodistribution analysis.

[2] = test system: FR-negative A549 xenograft; experiment: In vivo small animal imaging, FR-negative A549 cell xenografts; parameters: species or system mice; details: A549 xenograft negative control group, 10 nmol tail vein
Procedure: as §2, §3

FRβ = target: T3, FRβ (Homo sapiens, UniProt P14207); experiment: In vitro affinity assay of GT-NIR series probes by flow cytometry, M2 macrophages; assay type: cell-based; details: 500 nM, 1 hour, order GT-NIR-5 > GT-NIR-4 > GT-NIR-1
T3 construct: endogenous in cells
T3 sequence (P14207 17-230, species assumed): as the sequence (P14207 17-230, species assumed) above
Procedure: (§4) To compare the targeting affinity of different compounds in the GT-NIR series for folate receptors, FR^+ KB cells and M2 macrophages were seeded in 6-well plates at a density of 1×10^6 cells per well. After 24 hours of culture, the medium was replaced with folate-free fresh medium as a blank control. IR783 (500 nM) was added to exclude false-positive effects. Media containing GT-NIR series compounds (500 nM) were added to different wells and incubated for 1 hour. The cells were then digested with trypsin, washed three times with PBS (pH=7.4), and centrifuged (2000 rpm, 5 minutes) to remove unbound probes. The cells were resuspended in […] PBS, stored in light-protected BD Falcon tubes, and analyzed by flow cytometry. Statistical data were processed using FlowJo software (FIG. 6 and FIG. 7).

FRα = target: T4, FRα (Homo sapiens, UniProt P15328); experiment: In vitro affinity assay of GT-NIR series probes by flow cytometry, KB cells; assay type: cell-based; details: 500 nM, 1 hour, order GT-NIR-5 > GT-NIR-4 > GT-NIR-1
T4 construct: endogenous in cells; host or cells: KB cells
T4 sequence (P15328 25-234): as the sequence (P15328 25-234) above
Procedure: as §4

[3] = test system: tumors with high folate receptor expression; details: e.g., ovarian cancer, non-small cell lung cancer; background statement; cited from earlier work
folate receptors = details: background statement; cited from earlier work

Structure (SMILES): CC1(C)C(/C=C/C2=C(Oc3ccc(C[C@H](NC(=O)CNC(=O)Cc4cc5c(=O)[nH]c(N)nc5[nH]4)C(=O)O)cc3)C(=C/C=C3/N(CCCCS(=O)(=O)O)c4ccccc4C3(C)C)/CCC2)=[N+](CCCCS(=O)(=O)[O-])c2ccccc21 [GT-NIR-1]
- accumulation in folate receptor-negative cells (M1 macrophages): no accumulation was observed
- cell entry / fluorescence imaging by confocal microscopy (FRβ (in M2 macrophages)): successfully entered cells via targeting folate receptors
- cell entry / fluorescence imaging by confocal microscopy (FRα (in KB cells)): successfully entered cells via targeting folate receptors
- accumulation in folate receptor-negative cells (A549 cells): no accumulation was observed

Structure (SMILES): CC1(C)C(/C=C/C2=C(Oc3ccc(C[C@H](NC(=O)c4ccc(CCCCc5cc6c(=O)[nH]c(N)nc6[nH]5)cc4)C(=O)O)cc3)C(=C/C=C3/N(CCCCS(=O)(=O)O)c4ccccc4C3(C)C)/CCC2)=[N+](CCCCS(=O)(=O)[O-])c2ccccc21 [GT-NIR-4]
- clearance from the body [1]: rapidly cleared from the body
- targeted tumor imaging, whole-body fluorescence [1]: no targeted tumor imaging was observed
- clearance from the body [2]: rapidly cleared from the body
- targeted tumor imaging, whole-body fluorescence [2]: no targeted tumor imaging was observed

Structure (SMILES): CC1(C)C(/C=C/C2=C(Oc3ccc(C[C@H](NC(=O)c4ccc(CCCCc5cc6c(=O)[nH]c(N)nc6[nH]5)s4)C(=O)O)cc3)C(=C/C=C3/N(CCCCS(=O)(=O)O)c4ccccc4C3(C)C)/CCC2)=[N+](CCCCS(=O)(=O)O)c2ccccc21 [GT-NIR-5]
- binding affinity for FRβ (rank order within GT-NIR series) (FRβ): highest binding affinity
- binding affinity for FRα (rank order within GT-NIR series) (FRα): highest binding affinity

Structure (SMILES): CC1(C)C(/C=C/C2=C(Oc3ccc(C[C@H](NC(=O)c4ccc(NCc5cnc6nc(N)[nH]c(=O)c6n5)cc4)C(=O)[O-])cc3)C(=C/C=C3\N(CCCCS(=O)(=O)[O-])c4ccc(S(=O)(=O)[O-])cc4C3(C)C)/CCC2)=[N+](CCCCS(=O)(=O)[O-])c2ccc(S(=O)(=O)[O-])cc21.[H+].[H+].[H+].[H+] [OTL38]
- tumor illumination and dye accumulation [3]: illuminates tumor tissue at significant depths

Structure (SMILES): Nc1nc2ncc(CNc3ccc(C(=O)N[C@@H](CCC(=O)O)C(=O)O)cc3)nc2c(=O)[nH]1 [folic acid]
- Kd (folate receptors): ~1 nM
